Here are results for 21 molecules from patent US9145354B2, “Pharmaceutical compounds” (priority 2011, dated 2015).

Where two headings read alike, the source gives them in different places.

The subject of data set [1] is HCV subgenomic replicon in Huh-7 cells. The data set is described as follows: Replicon Assay (Example B), luciferase readout EC50. Format: cell-based. Conditions: Hepatitis C virus, Huh-7, replicon assay, luciferase readout; upper value of the cell pair; read-out: Assay B EC50. How it is done:
The activities of compounds of the invention against HCV in a cellular environment were analysed using a replicon assay as described below.
(§1) Thus, Huh-7 cells persistently infected with an HCV-RNA construct (Bartenschlager, R. Hepatitis C replicons: potential role for drug development. Nature Rev. Drug Discov. 1, 911-916 (2002)) comprising: 5′ and 3′ non-translated regions (NTR); the non-structural genes NS3 to NS5b; as well as the G418 drug resistance gene, neomycin, (for selection of cells carrying HCV replicon RNA) fused to the firefly Luciferase reporter gene (pFKI3889Iuc-ubi-neo/NS3-3′/ET) were used to determine the cell based antiviral activity of compounds using luciferase activity as an indirect readout of HCV RNA load. In this assay […] huh-7 cells persistently infected with the HCV subgenomic replicon construct above were plated/well in a 96 well tissue culture plate. The cells were allowed to attach overnight in DMEM medium supplemented with 10% FBS 1% NEAA, and 250 μg/ml gentamicin. The following day the medium was replaced with 200 μl/well of fresh medium as described above lacking gentamicin. Semilog dilutions of compounds in medium were then added to triplicate wells (non-edge) of the cultured cells to give a 0.1% DMSO final concentration. Plates were then incubated at 37° C. in an atmosphere of 5% CO2 and air for 72 h. […] The plate was then read at 535 nm (excitation) and 590 nm (emission) on a SpectraMax Gemini reader (Molecular Devices) to determine the number of viable cells by measuring the conversion of rezasurin (Alamar blue) to resorufin in response to mitochondrial activity. In order to determine the antiviral effect of these compounds EC50 values were determined by measuring the luciferase activity of the cells. Alamar blue solution was removed from the wells and replaced with 100 μl/well of medium along with 100 μl/well of Bright-Glo reagent and incubated at room temperature for 5 minutes before transferring 100 μl/well to a white bottom 96 well plate to read in a luminometer as described in the Bright-Glo Luciferase Assay System protocol (promega).
(In antiviral work, replicon cells carry a viral genome segment that copies itself.)

Data set [2] is described as follows: Replicon Assay (Example B), Alamar Blue cytotoxicity CC50. It is filed as cell-based. The following applies: human, lower value of the cell pair.
Text: as §1

For the next data set, the target named is full length NS3/4a (Hepatitis C virus genotype 1b (isolate BK) (HCV), UniProt P26663). Description: NS3 Protease Assay (Example A), FRET-based. It is filed as biochemical. Summed up:
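Initial rates were taken from fluorescence progress curves over 30 min at room temperature, and IC50 was fitted across replicates. In-house full-length NS3/4a cleaved a FRET peptide (5-FAMsp/QXL520) from the NS4A/B site. Medium: 50 mM Tris pH8, 20 mM DTT, 1% CHAPS, 10% glycerol, 5% DMSO.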

[3] abbreviates: HCV NS3 protease assay, full length NS3/4a, read-out: Assay A IC50 (μM) average.
Setting [4] is: read-out: IC50 against the protease activity of the full length NS3/4a.

Chain of full length NS3/4a (P26663 1027-1657): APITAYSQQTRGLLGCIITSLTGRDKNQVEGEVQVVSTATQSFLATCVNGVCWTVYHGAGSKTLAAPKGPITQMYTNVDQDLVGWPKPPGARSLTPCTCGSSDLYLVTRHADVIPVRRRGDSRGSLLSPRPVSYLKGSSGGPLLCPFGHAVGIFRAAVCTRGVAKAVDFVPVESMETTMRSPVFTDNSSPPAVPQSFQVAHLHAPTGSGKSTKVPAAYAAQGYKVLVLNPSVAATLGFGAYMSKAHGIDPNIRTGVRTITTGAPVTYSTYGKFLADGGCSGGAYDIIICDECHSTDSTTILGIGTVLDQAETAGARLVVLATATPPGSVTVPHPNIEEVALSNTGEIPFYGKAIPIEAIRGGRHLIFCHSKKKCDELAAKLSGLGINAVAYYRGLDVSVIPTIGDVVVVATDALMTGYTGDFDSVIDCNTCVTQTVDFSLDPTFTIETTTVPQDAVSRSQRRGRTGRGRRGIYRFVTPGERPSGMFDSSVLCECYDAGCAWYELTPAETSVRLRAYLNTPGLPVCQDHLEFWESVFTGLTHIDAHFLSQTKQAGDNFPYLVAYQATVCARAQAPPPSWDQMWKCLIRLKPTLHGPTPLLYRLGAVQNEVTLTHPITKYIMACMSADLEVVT

Usually EC50 stands for the concentration that produces a half-maximal response. The term CC50 denotes the concentration giving 50% cytotoxicity. Lower therefore signals greater toxicity to the cells. Consider `C[C@@H](CC(N)=O)N[C@@H](c1ccc(Cl)c(C(=O)c2cccnc2)c1F)C1CC1` [Example 119, (3S)-3-{[(R)-{4-chloro-2-fluoro-3-[(pyridin-3-yl)carbonyl]phenyl} (cyclopropyl)methyl]amino}-butanamide], for which the EC50 in data set [1] is 71 nM. The molecule also yielded a CC50 at 72 h in data set [2] of more than 3000 nM. The IC50 is 0.12 µM at full length NS3/4a (setting [3]) and less than 1 µM at full length NS3/4a (setting [4]).

For `C[C@@H](CC(N)=O)N[C@@H](c1ccc(Cl)c(C(=O)c2ccc(N)nc2)c1F)C1CC1` [Example 154, (3S)-3-{[(R)-{3-[(6-aminopyridin-3-yl)carbonyl]-4-chloro-2-fluorophenyl}(cyclo-propyl)methyl]amino}-butanamide], the EC50 in data set [1] was found to be 37 nM. Further, the CC50 at 72 h in data set [2] was more than 10000 nM. In addition, the IC50 on full length NS3/4a (setting [3]) was found to be 0.2 µM.

`CC[C@@H](N[C@@H](C)CC(N)=O)c1ccc(Cl)c(C(=O)c2cc[n+]([O-])cc2)c1F` [Example 142, (S)-3-{(R)-1-[4-Chloro-2-fluoro-3-(1-oxy-pyridine-4-carbonyl)-phenyl]-propylamino}-butyramide]: the EC50 in data set [1] was more than 3000 nM. The same molecule yielded a CC50 at 72 h in data set [2] of more than 3000 nM. For the same molecule, the IC50 was 0.3 µM on full length NS3/4a (setting [3]) and less than 1 µM on full length NS3/4a (setting [4]).

Regarding `C[C@@H](CC(N)=O)N[C@@H](c1ccc(Cl)c(C(=O)c2ccc3c(c2)OCC(=O)N3)c1F)C1CC1` [Example 270, (3S)-3-{[(R)-{4-chloro-2-fluoro-3-[(3-oxo-3,4-dihydro-2H-1,4-benzoxazin-7-yl)carbonyl]phenyl} (cyclopropyl)methyl]amino} butanamide], the EC50 in data set [1] amounted to 6 nM. The CC50 at 72 h in data set [2] is more than 3000 nM. The IC50 is 0.18 µM at full length NS3/4a (setting [3]) and less than 1 µM at full length NS3/4a (setting [4]).

`C=CC[C@@H](N[C@@H](C)CC(N)=O)c1ccc(Cl)c(C(=O)c2ccc(N)nc2)c1F` [Example 256, (3S)-3-{[(1R)-1-{3-[(6-aminopyridin-3-yl)carbonyl]-4-chloro-2-fluorophenyl}but-3-en-1-yl]amino} butanamide]: in data set [1], the concentration for a half-maximal effect (EC50) stood at 46 nM. The molecule also registered a CC50 at 72 h in data set [2] of more than 1000 nM. Besides, at full length NS3/4a (setting [3]), the IC50 was determined as 0.47 µM.

As for `COc1ccc([C@H](N[C@@H](C)CC(N)=O)C2CC2)c(F)c1C(=O)c1cccc(F)c1` [Example 224, (3S)-3-{[(R)-cyclopropyl({2-fluoro-3-[(3-fluorophenyl)carbonyl]-4-methoxyphenyl})methyl]amino}butanamide], the EC50 in data set [1] is 190 nM. In data set [2], this molecule yielded a CC50 at 72 h of more than 3000 nM. At full length NS3/4a (setting [3]), the IC50 is 0.081 µM.

`CC[C@@H](N[C@@H](C)CC(N)=O)c1ccc(OC)c(C(=O)c2ccccc2)c1F` [Example 152, (3S)-3-{[(1R)-1-(3-benzoyl-2-fluoro-4-methoxyphenyl)propyl]-amino}butanamide]: the EC50 in data set [1] turned out to be 66 nM. In data set [2], this molecule displayed a CC50 at 72 h of more than 10000 nM. Besides, the IC50 on full length NS3/4a (setting [3]) came to 0.051 µM.

Regarding `CC[C@@H](N[C@@H](C)CC(N)=O)c1ccc(Cl)c(C(=O)c2ccc(N)cn2)c1F` [Example 149, (3S)-3-{[(1R)-1-{3-[(5-aminopyridin-2-yl)carbonyl]-4-chloro-2-fluorophenyl}propyl]amino}-butanamide], in data set [1], the EC50 was 39 nM. Besides, the CC50 at 72 h in data set [2] is more than 10000 nM. Besides, the IC50 on full length NS3/4a (setting [3]) came out at 0.2 µM.

As for `CC[C@@H](N[C@@H](C)CC(N)=O)c1ccc(Cl)c(C(=O)c2cc(C)on2)c1F` [Example 110, (3S)-3-{[(1R)-1-{4-chloro-2-fluoro-3-[(5-methyl-1,2-oxazol-3-yl)carbonyl]-phenyl}-propyl]amino}-butanamide], in data set [1], the 50% effective concentration (EC50) came out at 510 nM. In data set [2], this molecule gave a CC50 at 72 h of more than 3000 nM. Moreover, at full length NS3/4a (setting [3]), the IC50 came to 0.17 µM.

For orientation: inhibition means how much of the control response was suppressed. High values mean a strong effect, low ones a weak effect. Regarding `CC[C@@H](N[C@@H](C)CC(=O)NCCN)c1ccc(Cl)c(C(=O)c2ccccc2)c1F` [Example 88, (3S)-N-(2-aminoethyl)-3-{[(1R)-1-(3-benzoyl-4-chloro-2-fluorophenyl)propyl]-amino}butanamide], the EC50 in data set [1] is 45 nM. Further, the CC50 at 72 h in data set [2] was more than 3000 nM. On full length NS3/4a (@ 0.01 uM), this molecule had an inhibition at 0.01 µM of 52%.

In the case of `CC[C@@H](N[C@@H](C)CC(=O)NCCO)c1ccc(Cl)c(C(=O)c2ccc(N)nc2)c1F` [Example 242, (3S)-3-{[(1R)-1-{3-[(6-aminopyridin-3-yl)carbonyl]-4-chloro-2-fluorophenyl}propyl]amino}-N-(2-hydroxyethyl)butanamide], in data set [1], the EC50 was 98 nM. This molecule returned a CC50 at 72 h in data set [2] of more than 1000 nM. The IC50 on full length NS3/4a (setting [3]) was 0.49 µM.

As for `CC[C@@H](N[C@@H](C)CC(N)=O)c1ccc(Cl)c(C(=O)c2ccc(C#N)c(OC)c2)c1F` [Example 235, (3S)-3-{[(1R)-1-{4-chloro-3-[(4-cyano-3-methoxyphenyl)carbonyl]-2-fluorophenyl}propyl]amino} butanamide], the EC50 in data set [1] came out at 8.8 nM. The CC50 at 72 h in data set [2] was more than 1000 nM. The IC50 on full length NS3/4a (setting [3]) is 0.13 µM; on full length NS3/4a (setting [4]) it was less than 1 µM.

Turning to `CC[C@@H](N[C@@H](C)CC(N)=O)c1ccc(Cl)c(C(=O)c2cncc(N)c2)c1F` [Example 145, (3S)-3-{[(1R)-1-{3-[(5-aminopyridin-3-yl)carbonyl]-4-chloro-2-fluorophenyl}propyl]-amino}butanamide], the EC50 in data set [1] was 1000 nM. For the same molecule, the CC50 at 72 h in data set [2] was more than 10000 nM. Also, the IC50 at full length NS3/4a (setting [3]) was found to be 0.84 µM.

Consider `CC[C@@H](N[C@@H](C)CC(N)=O)c1ccc(Cl)c(C(=O)c2ccc(F)c(F)c2)c1F` [Example 90, (3S)-3-{[(1R)-1-{4-chloro-3-[(3,4-difluorophenyl)carbonyl]-2-fluorophenyl}propyl]amino}-butanamide], for which, in data set [1], the EC50 amounted to 380 nM. The CC50 at 72 h in data set [2] is more than 3000 nM. Besides, the IC50 on full length NS3/4a (setting [3]) stood at 0.13 µM.

On to `CC[C@H](N[C@H](C)CO)c1ccc(Cl)c(C(=O)c2ccc(N)nc2)c1F` [Example 178, (2R)-2-{[(1S)-1-{3-[(6-aminopyridin-3-yl)carbonyl]-4-chloro-2-fluorophenyl}propyl]-amino}propan-1-ol], for which the EC50 in data set [1] came to 250 nM. This molecule had a CC50 at 72 h in data set [2] of more than 3000 nM. Further, the IC50 at full length NS3/4a (setting [3]) came to 0.088 µM.

`C[C@@H](CC(N)=O)N[C@@H](c1ccc(Cl)c(C(=O)c2ccc(C#N)cn2)c1F)C1CC1` [Example 238, (3S)-3-{[(R)-{4-chloro-3-[(5-cyanopyridin-2-yl)carbonyl]-2-fluorophenyl}(cyclopropyl)methyl]amino}butanamide]: in data set [1], the EC50 was 30 nM. The CC50 at 72 h in data set [2] is more than 1000 nM. Further, the IC50 at full length NS3/4a (setting [3]) stood at 0.11 µM.

In the case of `COc1cc(C(=O)c2c(Cl)ccc([C@H](N)C3CC3)c2F)ccc1C#N` [Example 69, 4-({3-[(R)-amino(cyclopropyl)methyl]-6-chloro-2-fluorophenyl}carbonyl)-2-methoxybenzonitrile], in data set [1], the EC50 stood at 33 nM. In data set [2], this molecule returned a CC50 at 72 h of more than 1000 nM. For the same molecule, at full length NS3/4a (setting [3]), the IC50 came out at 0.052 µM.

Regarding `CC[C@H](NC(C)(C)CC(N)=O)c1ccc(Cl)c(C(=O)c2ccc(N)nc2)c1F` [Example 251, 3-{[(1S)-1-{3-[(6-aminopyridin-3-yl)carbonyl]-4-chloro-2-fluorophenyl}propyl]amino}-3-methylbutanamide], the EC50 in data set [1] is more than 1000 nM. The same molecule had a CC50 at 72 h in data set [2] of more than 1000 nM. Moreover, on full length NS3/4a (setting [3]), the IC50 was 0.3 µM.

In the case of `N[C@@H](c1ccc(Cl)c(C(=O)c2ccccc2)c1F)C1CC1` [Example 11, (R)-(3-benzoyl-4-chloro-2-fluorophenyl)-(cyclopropyl)-methanamine], the EC50 in data set [1] was more than 3000 nM. In data set [2], this molecule returned a CC50 at 72 h of more than 3000 nM. The IC50 on full length NS3/4a (setting [3]) was 0.13 µM; at full length NS3/4a (setting [4]) it was less than 1 µM.

Turning to `CC[C@@H](N[C@@H](C)CC(N)=O)c1ccc(Cl)c(C(=O)c2cc(C)c(N)cn2)c1F` [Example 239, (3S)-3-{[(1R)-1-{3-[(5-amino-4-methylpyridin-2-yl)carbonyl]-4-chloro-2-fluorophenyl}propyl]amino} butanamide], in data set [1], the 50% effective concentration (EC50) is 38 nM. In addition, in data set [2], the cytotoxic concentration (CC50) at 72 h is more than 1000 nM. At full length NS3/4a (setting [3]), the IC50 turned out to be 0.5 µM.

In data set [2], `CCC(NC1CCCC1C(N)=O)c1ccc(Cl)c(C(=O)c2ccc(N)nc2)c1F` (single isomer, unassigned) [Example 125, 2-{[1-{3-[(6-aminopyridin-3-yl)carbonyl]-4-chloro-2-fluorophenyl}propyl]amino} cyclopentane-1-carboxamide] showed a CC50 at 72 h of more than 3000 nM. The IC50 is 0.29 µM at full length NS3/4a (setting [3]) and less than 1 µM at full length NS3/4a (setting [4]).
